Patent publication US20170253607A1, “LONG-ACTING HIV PROTEASE INHIBITOR” (Shionogi & Co., Ltd., priority 2014, published 2017)

Key:
HIV-1 PR = HIV-1 PR (Human immunodeficiency virus type 1 group M subtype B, UniProt P04585); assay: HIV-protease inhibitory activity assay (FRET peptide substrate); assay type: biochemical; conditions: Test Example 1
How it was run: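 Inhibition of HIV-1 protease was measured as loss of fluorescence dequenching of a HiLyte Fluor 488/QXL 520 peptide at 2 μmol/L, pH 4.8, room temperature, 60 minute reaction. IC50 was derived by nonlinear four-parameter fitting.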

[1] = Protein binding test (equilibrium dialysis, unbound ratio fu in serum); assay type: in vitro ADME; conditions: rat serum, equilibrium dialysis 24 hours, 37° C., 2 μg/mL
How it was run: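 Compound at 2 μg/mL in serum was dialysed against PBS for 24 hours at 37° C. Both sides were quantified by LC/MS/MS, and fu was taken as the PBS concentration divided by the serum concentration.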

[2] = Evaluation of total body clearance (CLtot), intravenous administration; assay type: in vivo, Sprague-Dawley (SD); conditions: rat (SD), intravenous administration 0.5-10 mg/kg; CLtot = dose/AUC
How it was run: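 Plasma levels quantified by LC/MS/MS after intravenous tail-vein dosing (0.5-10 mg/kg, compound-dependent; n=2-3). AUC from pharmacokinetic analysis; total clearance calculated as dose/AUC.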

Structure (SMILES) | IC50 (HIV-1 PR) [nM] | rat_fu [1] [%] | rat_CLt [2] [mL/min/kg]
CCN(Cc1ccccc1-c1sc2c(c1C(=O)O)CC(C)(C)CC2)c1ccc(CC(NC(=O)OC2COC3(C)OCCC23)C(O)CN(CC(C)C)S(=O)(=O)c2ccc(OC)cc2)cc1 (stereo not drawn) [Compound I-352] | 4.22 | <0.1 | 3.26
COc1ccc(S(=O)(=O)N(CC(C)C)CC(O)C(Cc2ccc(Oc3ccc(C)c(-c4sc5c(c4C(=O)O)CC(C)(C)CC5)c3)cc2)NC(=O)OC2COC3(C)OCCC23)cc1 (stereo not drawn) [Compound I-134] | 2.04 | <0.1 | 3.92
COc1ccc(S(=O)(=O)N(CC(C)C)CC(O)C(Cc2ccc(CN3CCc4ccc(-c5sc6c(c5C(=O)O)CC(C)(C)CC6)cc4C3)cc2)NC(=O)OC2COC3(C)OCCC23)cc1 (stereo not drawn) [Compound I-389] | 1.79 | <0.1 | 14
COc1ccc(S(=O)(=O)N(CC(C)C)CC(O)C(Cc2ccc(NCc3cc(F)ccc3-c3sc4c(c3C(=O)O)CC(C)(C)CC4)cc2)NC(=O)OC2COC3(C)OCCC23)cc1 (stereo not drawn) [Compound I-271] | 2.23 | <0.1 | 2.42
COc1ccc(S(=O)(=O)N(CC(C)C)CC(O)C(Cc2ccc(OCc3nccnc3-c3ccc(-c4sc5c(c4C(=O)O)CC(C)(C)CC5)cc3)cc2)NC(=O)OC2COC3(C)OCCC23)cc1 (stereo not drawn) [Compound I-195] | 2.15 | <0.1 | 6.74
COc1ccc(S(=O)(=O)N(CC(C)C)CC(O)C(Cc2ccc(Oc3ccc(-c4sc5c(c4C(=O)O)CC(C)(C)CC5)c(F)c3)cc2)NC(=O)OC2COC3OCCC23)cc1 (stereo not drawn) [Compound I-836] | 1.76 | <0.1 | 4.31
CC(C)CN(CC(O)C(Cc1ccc(OCCNC(=O)c2cc(Cl)cc(Cl)c2O)cc1)NC(=O)OC1COC2(C)OCCC12)S(=O)(=O)c1ccc2c(c1)OCO2 (stereo not drawn) [Compound I-168] | 1.83 | <0.1 | 5.68
COc1ccc(S(=O)(=O)N(CC(C)C)CC(O)C(Cc2ccc(NCc3ccccc3-c3sc4c(c3C(=O)O)CC(C)(C)CC4(C)C)cc2)NC(=O)OC2COC3(C)OCCC23)cc1 (stereo not drawn) [Compound I-418] | 2.21 | <0.1 | 1.49
COc1ccc(S(=O)(=O)N(CC(C)C)C[C@@H](O)[C@H](Cc2ccc(CCc3sc4c(c3C(=O)O)CC(C)(C)CC4)cc2)NC(=O)O[C@H]2CO[C@@]3(C)OCC[C@@H]23)cc1 [Compound I-12] | 1.82 | <0.1 | 2.9
CC(C)CN(CC(O)C(Cc1ccccc1)NC(=O)OC1COC2(C)OCCC12)S(=O)(=O)c1ccc2nc(NCc3ccc(-c4sc5c(c4C(=O)O)CC(C)(C)CC5)cc3)sc2c1 (stereo not drawn) [Compound I-798] | 0.99 | <0.1 | 4.54
COc1ccc(S(=O)(=O)N(CC(C)C)C[C@@H](O)[C@H](Cc2ccc(OCc3ccccc3-c3sc4c(c3C(=O)O)CC(C)(C)CC4)cc2)NC(=O)OC2CO[C@H]3OC[C@H](OC)[C@@H]23)cc1 (stereo partly drawn) [Compound I-907] | 1.27 | <0.1 | 0.73
COc1ccc(S(=O)(=O)N(CC(C)C)CC(O)C(Cc2ccc(N(C)CC3=C(c4sc5c(c4C(=O)O)CC(C)(C)CC5)CCOC3)cc2)NC(=O)OC2COC3(C)OCCC23)cc1 (stereo not drawn) [Compound I-363] | 3.36 | <0.1 | 3.39
COc1ccc(S(=O)(=O)N(CC(C)C)CC(O)C(Cc2ccc(NCC3(O)CCCC3c3sc4c(c3C(=O)O)CC(C)(C)CC4)cc2)NC(=O)OC2COC3(C)OCCC23)cc1 (stereo not drawn) [Compound I-334] | 1.91 | <0.1 | 3.87
COc1ccc(S(=O)(=O)N(CC(C)C)CC(O)C(Cc2ccc(NCc3cc(C#N)ccc3-c3sc4c(c3C(=O)O)CC(C)(C)CC4)cc2)NC(=O)OC2COC3(C)OCCC23)cc1 (stereo not drawn) [Compound I-256] | 2.82 | <0.1 | 3.83
CC(C)CN(CC(O)C(Cc1ccc(OCc2ccccc2-c2sc3c(c2C(=O)O)CC(C)(C)CC3(C)C)cc1)NC(=O)OC1COC2(C)OCCC12)S(=O)(=O)c1ccc2ncsc2c1 (stereo not drawn) [Compound I-119] | 1.23 | <0.1 | 2.29
COc1ccc(S(=O)(=O)N(CC(C)C)CC(O)C(Cc2ccc(N(C)C3Cc4cccc(-c5sc6c(c5C(=O)O)CC(C)(C)CC6)c4C3)cc2)NC(=O)OC2COC3(C)OCCC23)cc1 (stereo not drawn) [Compound I-405] | 2.42 | <0.1 | 3.27

Structure (SMILES) | IC50 (HIV-1 PR) [nM] | rat_fu [1] [%] | rat_CLt [2] [mL/min/kg]
COc1ccc(S(=O)(=O)N(CC(C)C)CC(O)C(Cc2ccc(NC3CCN(c4ccccc4-c4sc5c(c4C(=O)O)CC(C)(C)CC5)C3)cc2)NC(=O)OC2COC3(C)OCCC23)cc1 (stereo not drawn) [Compound I-238] | 2.52 | <0.1 | 3.05
COc1ccc(S(=O)(=O)N(CC(C)C)CC(O)C(Cc2ccc(CN(C)c3ccc(-c4sc5c(c4C(=O)O)CC(C)(C)CC5)c(C)c3)cc2)NC(=O)OC2COC3(C)OCCC23)cc1 (stereo not drawn) [Compound I-376] | 9.86 | <0.1 | 0.485
COc1ccc(S(=O)(=O)N(CC2CCCC2)CC(O)C(Cc2ccc(OCc3ccccc3-n3nc4c(c3C(=O)O)CC(C(F)(F)F)CC4)cc2)NC(=O)OC2COC3(C)OCCC23)cc1 (stereo not drawn) [Compound I-140] | 1.42 | <0.1 | 0.111
CC1(C)CCc2sc(-c3ccccc3COc3ccc(CC(NC(=O)OC4COC5(C)OCCC45)C(O)CN(CC(F)F)S(=O)(=O)c4ccc5ncsc5c4)cc3)c(C(=O)O)c2C1 (stereo not drawn) [Compound I-147] | 1.01 | <0.1 | 1.68
COc1ccc(S(=O)(=O)N(CC(C)C)CC(O)C(Cc2ccc(NCc3cc(C(F)(F)F)ccc3-n3nc4c(c3C(=O)O)CC(C)(C)CC4)cc2)NC(=O)OC2COC3(C)OCCC23)cc1 (stereo not drawn) [Compound I-378] | 4.1 | <0.1 | 0.173
COc1ccc(S(=O)(=O)N(CC(C)C)CC(O)C(Cc2ccc(CN(C)Cc3ccc(-c4sc5c(c4C(=O)O)CC(C)(C)CC5)cc3)cc2)NC(=O)OC2COC3(C)OCCC23)cc1 (stereo not drawn) [Compound I-267] | 2.4 | <0.1 | 5.01
COc1ccc(S(=O)(=O)N(CC(C)C)C[C@@H](O)[C@H](Cc2ccc(OCc3ccccc3-c3sc4c(c3C(=O)O)CC(C)(C)CC4)cc2)NC(=O)O[C@H]2CCO[C@H]3OCC[C@H]32)cc1 [Compound I-908] | 1.21 | <0.1 | 0.63
COc1ccc(S(=O)(=O)N(CC2CCCC2)CC(O)C(Cc2ccc(OCc3ccccc3-n3nc4c(c3C(=O)O)CC3(CCCC3)CC4)cc2)NC(=O)OC2COC3(C)OCCC23)cc1 (stereo not drawn) [Compound I-146] | 0.92 | <0.1 | 0.584
COc1ccc(S(=O)(=O)N(CC(C)C)CC(O)C(Cc2ccc(CN3CCc4c(-c5sc6c(c5C(=O)O)CC(C)(C)CC6)cccc43)cc2)NC(=O)OC2COC3(C)OCCC23)cc1 (stereo not drawn) [Compound I-386] | 5.89 | <0.1 | 4.96
COc1ccc(S(=O)(=O)N(CC(C)C)CC(O)C(Cc2ccc(N3CC(C)C(Oc4ccccc4-c4sc5c(c4C(=O)O)CC(C)(C)CC5)C3)cc2)NC(=O)OC2COC3(C)OCCC23)cc1 (stereo not drawn) [Compound I-406] | 1.89 | <0.1 | 4.61
CC(C)CN(CC(O)C(Cc1ccc(CCc2sc3c(c2C(=O)O)CC(C)(C)CC3)cc1)NC(=O)OC1COC2(C)OCCC12)S(=O)(=O)c1ccc2c(c1)OCO2 (stereo not drawn) [Compound I-106] | 2.57 | <0.1 | 3.49
COc1ccc(S(=O)(=O)N(CC2CCCC2)CC(O)C(Cc2ccc(OCc3ccccc3-n3nc4c(c3C(=O)O)CC(C)(C)CC4)cc2)NC(=O)OC2COC3(C)OCCC23)cc1 (stereo not drawn) [Compound I-139] | 0.78 | <0.1 | 0.286
COc1ccc(S(=O)(=O)N(CC(C)C)CC(O)C(Cc2ccc(N(C)C3CN(c4ccc(-c5sc6c(c5C(=O)O)CC(C)(C)CC6)cc4)C3)cc2)NC(=O)OC2COC3(C)OCCC23)cc1 (stereo not drawn) [Compound I-391] | 3.94 | <0.1 | 10.3
CCCCCN(Cc1ccccc1-c1sc2c(c1C(=O)O)CC(C)(C)CC2)c1ccc(CC(NC(=O)OC2COC3(C)OCCC23)C(O)CN(CC(C)C)S(=O)(=O)c2ccc(OC)cc2)cc1 (stereo not drawn) [Compound I-338] | 4.7 | <0.1 | 5.7
COc1ccc(S(=O)(=O)N(CC(C)C)C[C@@H](O)[C@H](Cc2ccc(OC(C)(C)C(=O)Nc3sc4c(c3C(=O)O)CC(C)(C)CC4)cc2)NC(=O)O[C@H]2CO[C@@]3(C)OCC[C@@H]23)cc1 [Compound I-7] | 2.31 | <0.1 | 0.238
COc1ccc(S(=O)(=O)N(CC(C)C)CC(O)C(Cc2ccc(N(C)CC3=C(c4sc5c(c4C(=O)O)CC(C)(C)CC5)CCC3)cc2)NC(=O)OC2COC3(C)OCCC23)cc1 (stereo not drawn) [Compound I-347] | 4.4 | <0.1 | 5.18
